In patent US10189881B2, “MPS peptides and use thereof” (The Regents of the University of California, priority 2013, dated 2019):
“Also recorded” adds a separate entry of the source. Peptide text beside a SMILES is read from it.

Key:
CL1-0 cells = assay: MTS cell viability, drug treatment of mock transfected cells; assay type: cell-based, human; details: control mock transfected CL1-0 cells; increasing concentrations, 72 hours
Description: (§1) FIGS. 10A and 10B show implication of phospho-MARCKS levels in drug resistance. (A) Effects of ectopic V5-tagged PSD-mutant or wild type MARCKS expression on CL1-0 cells in response to various drug treatments. (B) Effects of MARCKS shRNA silencing on A549 cells in response to various drug treatments. Western blot analyses were carried out to determine phospho-MARCKS and total MARCKS levels in these stable cells with appropriate antibodies. The cells were subjected to various doses of cisplatin, paclitaxel, erlotinib or dasatinib for treatment, as indicated. After 72 hours of treatment, cell viability was determinate by MTS assays. Data shown as mean±SD. *P<0.05 versus mock (A; n=3); *P<0.05 versus control shRNA (B; n=4).
To determine if the MARCKS phosphorylation step can serve as a therapeutic target, Applicants evaluated whether the status of MARCKS PSD phosphorylation could alter the sensitivity of NSCLC cells to chemotherapeutic agents and tyrosine kinase inhibitors (TKIs). The V5-tagged wild-type and PSD-mutated (S159/163A) MARCKS constructs were generated and transfected into low MARCKS-expressing CL1-0 cells (FIG. 16A) (Chen, C. H. et al. (2013) Oncogene) for establishing stable clones. These stable cell lines were exposed to increasing concentrations of cisplatin, paclitaxel, erlotinib or dasatinib for 72 hours. […] These toxicities were repressed by enforced expression of V5-tagged wild type MARCKS, but not by overexpression of the S159/163A mutant.

[1] = tested on: cancer cell lines (H1975, HCT116, H1650, CL1-5 and others); assay: MTS cell viability assay, cancer cell lines; assay type: cell-based; details: H1975, HCT116, H1650 and CL1-5 cells; 72 hours; listed as MPS peptide
Description: Top, cells were incubated with various concentrations of MPS peptide for 72 hours and then subjected to a MTS assay for analysis of cell viability. Polyamine served as a peptide control. *, P<0.05 compared with untreated cells. The HBE1 cell line is a normal bronchial epithelial cell line. Bottom, ethnicities of the cancer cell lines used for MTS assay.
FIGS. 13A-13G show MPS peptide suppresses cancer cell proliferation and also induces apoptosis in these cells through direct downregulation of MARCKS activation. (A) Determination of MARCKS phosphorylation levels after 24 hours of MPS peptide treatment. Lysates from 1-100 μM MPS peptide-treated H1975 cells were subjected to western blot analysis. (B) Levels of PIP3 in drug resistant cancer cell lines after MPS peptide treatment. Cells were treated with 10, 50 or 100 μM MPS peptide. After 24 hours of treatment, PIP3 lipids were extracted from these cells and analyzed by a PIP3 ELISA kit. *P<0.05 compared with untreated cells. […] (E) Cells were treated with the indicated concentrations of MPS peptide and colonies were counted after 10 days of treatment using crystal violet staining (F) MPS treatment augments cell death. […] The percentages of apoptotic cells were quantified by flow cytometry (top), and presented as mean±SD of three experiments (bottom). *, P<0.05 versus untreated cells (Con). […]

[2] = Tolerability upon systemic administration; assay type: in vivo; details: systemic administration in mice
[3] = tested on: lung cancer cells with low phospho-MARCKS levels; assay: MTS cell viability, lung cancer cell lines with low phospho-MARCKS levels; assay type: cell-based, human; details: various concentrations, 72 hours
Description: (§2) After 72 hours of peptide treatment, the number of viable cells was visualized by using crystal violet staining. A representative example of three independent experiments is shown. […] Cells were incubated with various concentrations of MPS peptide for 72 hours and then subjected to MTS assays. 200 μM polyamine and aspartates-substituted mutant (Mut) peptide served as peptide controls (n=3).

[4] = tested on: normal human bronchial epithelial cells; assay: Crystal violet staining of viable normal cells after peptide treatment; assay type: cell-based; details: 50 μM or various concentrations; 72 hours
Description: After 72 hours of peptide treatment, the number of viable cells was visualized by using crystal violet staining. A representative of three independent experiments.
as §2

H1650 and H1975 cells = details: 0.5 μM erlotinib alone; 48 hours
Description: The combinatorial effect of MPS peptide with erlotinib on cancer cell lines. Two chemoresistant lung cancer cells, H1650 (Left) and H1975 (Right) cells were respectively co-treated with various dosages of erlotinib and 50 μM MPS peptide. After 48 hours, cell viability was determinate by MTS assay. *, P<0.05.
Two erlotinib resistant cell lines, H1975 (left) and H1650 (right), were co-treated with various dosages of erlotinib and 50 μM MPS peptide. After 48 hours, cell viability was determined by MTS assay. *, P<0.05.
Cells were seeded onto 96-well plates at a density of 5-10×10^3 cells per well and cultured for the indicated treatment. Cell viability was evaluated using a MTS assay kit (Promega, Madison, Wis.). Twenty microliters of the combined MTS/PMS solution was added into each well, incubated for 3 hours at 37° C., and the absorbance was measured at 490 nm by using an ELISA reader.

H1975 cells = assay: Subcutaneous H1975 xenograft, peptide treatment; assay type: in vivo, nude mice; details: i.p., 28 mg/kg every three days for 7 injections
Description: FIGS. 14A-14F show suppressive effects of MPS peptide on cancer growth and metastasis in vivo. (A-C) Suppression of tumorigenesis by MPS peptide. Nude mice bearing subcutaneous tumors were treated for 21 days with intraperitoneal injections of PBS, Mut or MPS peptide at the dosage of 28 mg/kg/3 days. Tumor appearance and volumes were measured and data was presented as mean±SD (n=5, A). A representative photo of primary tumors from subcutaneous tissue of nude mice was shown (B, left). The tumor weights were average values from five mice per group and data were shown as mean±SE (B, right). * P<0.05 as compared with PBS group. […] Top, a representative photo of primary tumors from subcutaneous tissue of nude mice. Bottom, tumor weights are average values from six mice per group. Data were shown as mean±SE. *P<0.01 as compared to PBS-treated group. (E) Inhibition of lung cancer metastasis by MPS peptide. Dissociated PC9 cells were orthotopically injected into the left lobe of the mouse lung. […] (F) Quantification of the average pulmonary metastasis nodules from mice with injected cancer cells and treated with […] or MPS peptide as described (*P<0.05 versus PBS).
To determine the anti-cancer effect of the MPS peptide in vivo, H1975 cells were injected subcutaneously into nude mice. […] After treatment for 21 days, the animals were sacrificed to evaluated tumor weights.

[5] = tested on: MARCKS phosphorylation (Ser159/163); assay: Western blot of MARCKS phosphorylation in peptide-treated cells; assay type: cell-based, human; details: 100 μM peptide, 24 hours, H1650 or H1975 cells
Description: The levels of MARCKS phosphorylation in chemoresistant cancer cell lines after 24 hours of MPS or mutant (Mut) peptide treatment. Lysates form 100 μM MPS-or Mut peptide-treated H1650 or H1975cells were subjected to immunoblotting. The sequences of MARCKS MPS peptide consisted of amino acids 152 to 176 from the wild-type protein (SEQ ID NO: 9). The sequences of mutated MPS peptide (Mut) (SEQ ID NO: 14) had the replacement of serine residues (S) by aspartate (D) and are unable to be recognized by PKC. The underline represents the PIP2 binding site.
FIGS. 13A-13G show MPS peptide suppresses cancer cell proliferation and also induces apoptosis in these cells through direct downregulation of MARCKS activation. (A) Determination of MARCKS phosphorylation levels after 24 hours of MPS peptide treatment. Lysates from 1-100 μM MPS peptide-treated H1975 cells were subjected to western blot analysis. (B) Levels of PIP3 in drug resistant cancer cell lines after MPS peptide treatment. Cells were treated with 10, 50 or 100 μM MPS peptide. After 24 hours of treatment, PIP3 lipids were extracted from these cells and analyzed by a PIP3 ELISA kit. *P<0.05 compared with untreated cells. (C) Downregulation of AKT phosphorylation by MPS peptide treatment, but not by Mut peptide. Cells were treated with 100 μM MPS or Mut peptide for 24 hours. Lysates were immunoblotted with the indicated antibodies. (D) Cell viability analysis of six cancer cell lines and human bronchial epithelial cells (HBE1) upon MPS treatment. Cells were incubated with various concentrations of MPS peptide for 72 hours and then subjected to MTS assays. Polylysine served as a peptide control. n=4, *P<0.05 compared with untreated cells (Con). (E) Cells were treated with the indicated concentrations of MPS peptide and colonies were counted after 10 days of treatment using crystal violet staining (F) MPS treatment augments cell death. […] The percentages of apoptotic cells were quantified by flow cytometry (top), and presented as mean±SD of three experiments (bottom). *, P<0.05 versus untreated cells (Con). […]

A549 cells = assay: MTS drug sensitivity of MARCKS-knockdown cells; assay type: cell-based, human; details: stable MARCKS-knockdown A549 cells versus control shRNA; 72 hours
Description: as §1
For enforced expression of V5-tagged MARCKS in CL1-0, lung cancer cells were transfected with pcDNA3.1-MARCKS, pcDNA3.1-S159/163A MARCKS or pcDNA3.1 vector using lipofectamine reagent (Invitrogen), according to the manufacturer's protocol. After culturing in medium containing with 400 μg/mL of G418 (Invitrogen) for 2-3 weeks, individual clones were isolated. Clones that expressed the MARCKS cDNA coding region were maintained in medium containing 200 μg/mL of G418 and used for further investigation. Applicants also established a MARCKS-mixed knockdown stable A549 transfectant. […]

CC(=O)O[C@H]1C(=O)[C@@]2(C)[C@H]([C@H](OC(=O)c3ccccc3)[C@]3(O)C[C@H](OC(=O)[C@H](O)[C@@H](NC(=O)c4ccccc4)c4ccccc4)C(C)=C1C3(C)C)[C@]1(OC(C)=O)CO[C@@H]1C[C@@H]2O [paclitaxel]
Cell viability (CL1-0 cells): dose-dependent decrease of cell viability

CC(C)C[C@H](NC(=O)[C@H](CCCCN)NC(=O)[C@H](Cc1ccccc1)NC(=O)[C@H](CO)NC(=O)[C@H](CCCCN)NC(=O)[C@H](CCCCN)NC(=O)[C@H](Cc1ccccc1)NC(=O)[C@H](CO)NC(=O)[C@H](Cc1ccccc1)NC(=O)[C@H](CCCNC(=N)N)NC(=O)[C@H](CCCCN)NC(=O)[C@H](CCCCN)NC(=O)[C@H](CCCCN)NC(=O)[C@H](CCCCN)NC(=O)[C@@H](N)CCCCN)C(=O)N[C@@H](CO)C(=O)NCC(=O)N[C@@H](Cc1ccccc1)C(=O)N[C@@H](CO)C(=O)N[C@@H](Cc1ccccc1)C(=O)N[C@@H](CCCCN)C(=O)N[C@@H](CCCCN)C(=O)N[C@@H](CC(N)=O)C(=O)N[C@@H](CCCCN)C(=O)N[C@@H](CCCCN)C(=O)O [MPS] (H-KKKKKRFSFKKSFKLSGFSFKKNKK-OH)
Cytotoxic / anti-proliferative effect on TKIs resistant cancer cells [1]: cytotoxicity effect of MPS peptide is obvious; also recorded: obvious anti-proliferative effect
Tolerability [2]: well tolerated upon systemic administration in mice
Cytotoxicity in lung cancer cells with low phospho-MARCKS levels [3]: did not observe any cytotoxicity
Cytotoxicity in normal human bronchial epithelial cells [4]: did not observe any cytotoxicity

C#Cc1cccc(Nc2ncnc3cc(OCCOC)c(OCCOC)cc23)c1 [erlotinib]
Cell viability compared to untreated cells (H1650 and H1975 cells): no significant decrease in cell viability
Cell viability (CL1-0 cells): dose-dependent decrease of cell viability

KKKKKRFDFKKDFKLDGFDFKKNKK [Mut, aspartates-substituted mutant MPS peptide used as control]
Tumor size (H1975 cells): continuous growth
Suppression of p-MARCKS [5]: no suppression
Suppression of p-MARCKS ([5]; listed as Mut peptide): not in Mut peptide-treated cells

5′-GAGCGCTTCTCCTTCAAGAA-3′ (expressed or natural sequence) [MARCKS shRNA-c, common MARCKS-specific short hairpin RNA]
Sensitivity to cisplatin, paclitaxel, erlotinib, dasatinib (A549 cells): enhanced sensitivity to these drugs

N.N.[Cl][Pt][Cl] [cisplatin]
Cell viability (CL1-0 cells): dose-dependent decrease of cell viability
